Assay results taken from PMC3885546, “Structural Determinants of the 5′-Methylthioinosine Specificity of Plasmodium Purine Nucleoside Phosphorylase” (PLoS ONE, 2014).
Numbering of substitutions follows the chain as printed.

Tests used:
Assay in all cases: Substrate kinetics, coupled assay
Format in all cases: biochemical
PfPNP Tyr47Ala = molecular target: T1, PfPNP Tyr47Ala (Plasmodium falciparum, UniProt Q8I3X4, Y47A); conditions: for Km / kcat: substrate = label
T1 construct: made in house; host or cells: Escherichia coli Top 10
T1 sequence (Q8I3X4 1-245 Y47A): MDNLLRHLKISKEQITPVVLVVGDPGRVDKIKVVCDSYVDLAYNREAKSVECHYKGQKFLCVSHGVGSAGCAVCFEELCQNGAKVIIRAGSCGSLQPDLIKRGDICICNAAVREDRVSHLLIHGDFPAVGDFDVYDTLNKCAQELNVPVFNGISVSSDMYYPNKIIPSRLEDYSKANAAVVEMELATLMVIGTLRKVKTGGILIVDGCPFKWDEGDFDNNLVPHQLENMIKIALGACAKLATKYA
Procedure: (§1) Kinetic assays were completed in 50 mM KH2PO4 at pH 7.4 measuring phosphorylysis of inosine or MTI by PNP in a coupled reaction with 60 milliunits/ml xanthine oxidase to convert hypoxanthine to uric acid. Formation of uric acid was measured at 293 nm wavelength (E293 = 12.9 mM^−1 cm^−1), [20]. In cases where activity for MTI was low, increased protein concentration (10 µg/ml) was used to check enzyme function. Assays were performed with excess substrate in the presence of inhibitors. Inhibition studies measured both initial (Ki) and slow onset inhibition (Ki*) for inhibitors. The initial onset inhibition was analyzed by using the following equation: ν ο = (k cat×S)/(K m(1+I/Ki)+S), ν ο is the steady state rate, k cat catalytic rate, S is substrate concentration, Km is Michealis constant for inosine, I is inhibitor concentration, and Ki is the equilibrium dissociation constant.

PfPNP Val66Ile/Tyr160Phe = molecular target: T2, PfPNP Val66Ile/Tyr160Phe (Plasmodium falciparum, UniProt Q8I3X4, V66I/Y160F); conditions: for Km / kcat: substrate = label
T2 construct: made in house; host or cells: Escherichia coli Top 10
T2 sequence (Q8I3X4 1-245 V66I/Y160F): T1 sequence (Q8I3X4 1-245 Y47A) with A47Y, V66I, Y160F
Procedure: as §1

PfPNP Val73Ile = molecular target: T3, PfPNP Val73Ile (Plasmodium falciparum, UniProt Q8I3X4, V73I); conditions: for Km / kcat: substrate = label
T3 construct: made in house; host or cells: Escherichia coli Top 10
T3 sequence (Q8I3X4 1-245 V73I): T1 sequence (Q8I3X4 1-245 Y47A) with A47Y, V73I
Procedure: as §1

PfPNP His7Ala = molecular target: T4, PfPNP His7Ala (Plasmodium falciparum, UniProt Q8I3X4, H7A); conditions: for Km / kcat: substrate = label
T4 construct: made in house; host or cells: Escherichia coli Top 10
T4 sequence (Q8I3X4 1-245 H7A): T1 sequence (Q8I3X4 1-245 Y47A) with H7A, A47Y
Procedure: as §1

PfPNP Val66Ile/Val73Ile = molecular target: T5, PfPNP Val66Ile/Val73Ile (Plasmodium falciparum, UniProt Q8I3X4, V66I/V73I); conditions: for Km / kcat: substrate = label
T5 construct: made in house; host or cells: Escherichia coli Top 10
T5 sequence (Q8I3X4 1-245 V66I/V73I): T1 sequence (Q8I3X4 1-245 Y47A) with A47Y, V66I, V73I
Procedure: as §1

PfPNP Val73Ala = molecular target: T6, PfPNP Val73Ala (Plasmodium falciparum, UniProt Q8I3X4, V73A); conditions: for Km / kcat: substrate = label
T6 construct: made in house; host or cells: Escherichia coli Top 10
T6 sequence (Q8I3X4 1-245 V73A): T1 sequence (Q8I3X4 1-245 Y47A) with A47Y, V73A
Procedure: as §1

PfPNP Val66Ile = molecular target: T7, PfPNP Val66Ile (Plasmodium falciparum, UniProt Q8I3X4, V66I)
T7 construct: made in house; host or cells: Escherichia coli Top 10
T7 sequence (Q8I3X4 1-245 V66I): T1 sequence (Q8I3X4 1-245 Y47A) with A47Y, V66I
Procedure: as §1

PfPNP Val73Ile/Tyr160Phe = molecular target: T8, PfPNP Val73Ile/Tyr160Phe (Plasmodium falciparum, UniProt Q8I3X4, V73I/Y160F); conditions: for Km / kcat: substrate = label
T8 construct: made in house; host or cells: Escherichia coli Top 10
T8 sequence (Q8I3X4 1-245 V73I/Y160F): T1 sequence (Q8I3X4 1-245 Y47A) with A47Y, V73I, Y160F
Procedure: as §1

## 5′-methylthioinosine
PfPNP Tyr47Ala
  Km: 960 µM
  kcat: 0.02 ± 0 s⁻¹
PfPNP Val66Ile/Tyr160Phe
  Km: 11 ± 2 µM
  kcat: 0.05 ± 0.00 s⁻¹
PfPNP Val73Ile
  Km: 11 ± 8 µM
  kcat: 0.81 ± 0.03 s⁻¹
PfPNP His7Ala
  Km: 2.6 ± 2 µM
  kcat: 0.29 ± 0.21 s⁻¹
PfPNP Val66Ile/Val73Ile
  Km: 15 ± 5 µM
  kcat: 0.91 ± 0.20 s⁻¹
PfPNP Val73Ala
  Km: 20 ± 10 µM
  kcat: 1.9 ± 0.3 s⁻¹
PfPNP Val66Ile; substrate = label
  kcat: 1.2 ± 0.7 s⁻¹
PfPNP Val73Ile/Tyr160Phe
  Km: 60 ± 33 µM
  kcat: 0.28 ± 0.04 s⁻¹

## OC[C@H]1O[C@@H](n2cnc3c(O)ncnc32)[C@H](O)[C@@H]1O [Inosine, inosine]
PfPNP Tyr47Ala
  Ino/MTI kcat/Km Ratio: 9.3
  Km: 200 µM
  kcat: 0.04 ± 0.00 s⁻¹
PfPNP Val66Ile/Tyr160Phe
  Ino/MTI kcat/Km Ratio: 39
  Km: 6.2 ± 3.5 µM
  kcat: 1.2 ± 0.16 s⁻¹
PfPNP Val73Ile
  Ino/MTI kcat/Km Ratio: 2.0
  Km: 13 ± 2 µM
  kcat: 1.9 ± 0.7 s⁻¹
PfPNP His7Ala
  Ino/MTI kcat/Km Ratio: 2.2
  Km: 45 ± 7 µM
  kcat: 1.1 ± 0.5 s⁻¹
PfPNP Val66Ile/Val73Ile
  Ino/MTI kcat/Km Ratio: 2.7
  Km: 28 ± 11 µM
  kcat: 4.6 ± 0.6 s⁻¹
PfPNP Val73Ala
  Ino/MTI kcat/Km Ratio: 1.6
  Km: 7 ± 4 µM
  kcat: 1.1 ± 0.1 s⁻¹
PfPNP Val66Ile
  Ino/MTI kcat/Km Ratio: 1.4
PfPNP Val66Ile; substrate = label
  Km: 16 ± 4 µM
  kcat: 2.0 ± 0.2 s⁻¹
PfPNP Val73Ile/Tyr160Phe
  Ino/MTI kcat/Km Ratio: 35
  Km: 3.6 ± 1.3 µM
  kcat: 0.59 ± 0.13 s⁻¹
